Patent publication EP0762895B1, “SYNTHETIC VACCINE FOR PROTECTION AGAINST HUMAN IMMUNODEFICIENCY VIRUS INFECTION” (DUKE UNIVERSITY, priority 1994, dated 1995)
Where two headings read alike, the source gives them in different places. Where no end group is shown, it is not given here.

What was measured:
[1] = test system: Normal Human Peripheral Blood Lymphocytes
[2] = test system: T cells; details: share of population studied, cited from earlier work
[3] = T helper epitopes of Clerici et al 1989
[4] = T helper epitopes of Schrier et al 1989

Row | Substance | % Responding [2, 4] | further results
1 | CTRPNNNTRKSIRIQRGPG [SP-10, CTRPNNNTRKSIRIQRGPG] |  | Inhibition of normal T cell response to tetanus toxoid [1]: no inhibition of normal T cell response to tetanus toxoid was observed
2 | HEDIISLWNQSLK [T2] |  | % Responding [2, 3]: 54%
3 | KQIINMWQEVGKAMYA [T1] |  | % Responding [2, 3]: 77%
4 | TH4: T helper epitope, amino acids 834-848 of gp41 (QGACRAIRHIPRRIR; Transmembrane protein gp41; UniProt P04578 834-848, looked up, fragment) |  | % Responding [2, 3]: 75%
5 | gp41-1: T helper epitope, amino acids 603-614 of gp41 (ICTTAVPWNASW; Transmembrane protein gp41; UniProt P04578 603-614, looked up, fragment) | 41% | 
6 | gp41-2: T helper epitope, amino acids 609-620 of gp41 (PWNASWSNKSLE; Transmembrane protein gp41; UniProt P04578 609-620, looked up, fragment) | 42% | 
7 | gp41-3: T helper epitope, amino acids 655-667 of gp41 (KNEQELLELDKWA; Transmembrane protein gp41; UniProt P04578 655-667, looked up, fragment) | 38% | 
8 | gp41-5: T helper epitope, amino acids 737-749 of gp41 (GGERDRDRSIRLV; Transmembrane protein gp41; UniProt P04578 737-749, looked up, fragment) | 21% | 
9 | gp41-7: T helper epitope, amino acids 584-609 of gp41 (ERYLKDQQLLGIWGCSGKLICTTAVP; Transmembrane protein gp41; UniProt P04578 584-609, looked up, fragment) | 24% | 
10 | gp120-2: T helper epitope, amino acids 115-126 of gp120 (SLKPCVKLTPLC; Envelope glycoprotein gp120; UniProt P04578 115-126, looked up, fragment) | 38% | 
11 | gp120-5: T helper epitope, amino acids 368-377 of gp120 (DPEIVTHSFN; Envelope glycoprotein gp120; UniProt P04578 368-377, looked up, fragment) | 21% | 
12 | pol-1: T helper epitope, amino acids 899-913 of pol | 28% | 
13 | pol-2: T helper epitope, amino acids 923-937 of pol | 38% | 
14 | pol-3: T helper epitope, amino acids 942-954 of pol | 48% | 
15 | pol-4: T helper epitope, amino acids 720-730 of pol (PSINNETPGIR; UniProt P04585 720-730, looked up, fragment) | 35% | 
